Experiments:
Experiment in all cases: relative viability (nuclei count vs DMSO), 5 days (fraction); higher = more cells survive
Vismodegib + Olaparib = compound: CS(=O)(=O)c1ccc(C(=O)Nc2ccc(Cl)c(-c3ccccn3)c2)c(Cl)c1 [Vismodegib] + O=C(c1cc(Cc2n[nH]c(=O)c3ccccc23)ccc1F)N1CCN(C(=O)C2CC2)CC1 [Olaparib] (partner 8 µM)
Procedure, shortened: (§1)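 Relative viability was taken as the ratio of nuclei in treated wells to nuclei in vehicle wells. Lung cancer cell lines in 1536-well plates received compounds by pin tool one day after seeding, either one drug alone or a fixed anchor-drug dose plus five library-drug doses (not always all listed) in √10 steps. Nuclei were counted on 4× images after 5 days of treatment, and values are medians of duplicate plates.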

Vismodegib + Pemetrexed = compound: CS(=O)(=O)c1ccc(C(=O)Nc2ccc(Cl)c(-c3ccccn3)c2)c(Cl)c1 [Vismodegib] + Nc1nc2[nH]cc(CCc3ccc(C(=O)N[C@@H](CCC(=O)O)C(=O)O)cc3)c2c(=O)[nH]1 [Pemetrexed] (partner 0.2 µM)
Procedure, shortened: as §1

VE-821 + Olaparib = compound: CS(=O)(=O)c1ccc(-c2cnc(N)c(C(=O)Nc3ccccc3)n2)cc1 [VE-821] + O=C(c1cc(Cc2n[nH]c(=O)c3ccccc23)ccc1F)N1CCN(C(=O)C2CC2)CC1 [Olaparib] (partner 8 µM)
Procedure, shortened: as §1

Vismodegib + Phenformin = compound: CS(=O)(=O)c1ccc(C(=O)Nc2ccc(Cl)c(-c3ccccn3)c2)c(Cl)c1 [Vismodegib] + N=C(N)NC(=N)NCCc1ccccc1 [Phenformin] (partner 250 µM)
Procedure, shortened: as §1

Cell Line	relative viability (Vismodegib + Olaparib; first compound 0.08 µM)	relative viability (Vismodegib + Olaparib; first compound 0.253 µM)	relative viability (Vismodegib + Olaparib; first compound 0.8 µM)	relative viability (Vismodegib + Olaparib; first compound 2.53 µM)	relative viability (Vismodegib + Olaparib; first compound 8 µM)	relative viability (Vismodegib + Pemetrexed; first compound 0.08 µM)	relative viability (Vismodegib + Pemetrexed; first compound 0.253 µM)	relative viability (Vismodegib + Pemetrexed; first compound 0.8 µM)	relative viability (Vismodegib + Pemetrexed; first compound 2.53 µM)	relative viability (Vismodegib + Pemetrexed; first compound 8 µM)	relative viability (VE-821 + Olaparib; first compound 0.08 µM)	relative viability (VE-821 + Olaparib; first compound 0.253 µM)	relative viability (VE-821 + Olaparib; first compound 0.8 µM)	relative viability (VE-821 + Olaparib; first compound 2.53 µM)	relative viability (VE-821 + Olaparib; first compound 8 µM)	relative viability (Vismodegib + Phenformin; first compound 0.08 µM)	relative viability (Vismodegib + Phenformin; first compound 0.253 µM)	relative viability (Vismodegib + Phenformin; first compound 0.8 µM)	relative viability (Vismodegib + Phenformin; first compound 2.53 µM)	relative viability (Vismodegib + Phenformin; first compound 8 µM)
NCI-H1993	0.9	1.03	1.03	1	0.963	0.559	0.583	0.564	0.68	0.63	1.21	0.943	1.03	1.01	0.942	0.448	0.531	0.519	0.514	0.498
NCI-H2126	0.887	0.966	0.928	0.849	0.969	0.717	0.664	0.661	0.623	0.681	1.01	0.907	0.969	0.927	0.682	0.529	0.517	0.482	0.493	0.506
NCI-H1793	–	0.907	1.11	0.917	0.884	–	0.877	0.708	0.83	0.726	1	0.878	–	0.763	0.547	–	0.36	0.358	0.365	0.375
LC-2-ad	0.681	0.734	0.686	0.658	0.716	0.269	0.271	0.278	0.276	0.26	0.714	0.709	0.725	0.592	0.519	0.626	0.583	0.561	0.618	0.494
NCI-H647	0.66	0.508	0.669	0.368	0.479	0.156	0.188	0.171	0.15	0.184	0.504	0.546	0.413	0.184	0.101	0.439	0.491	0.509	0.507	0.433
